Laboratory results taken from patent US20250034165A1, “COMPOUND CONTAINING CYCLOALKYL OR HALOALKYL” (CHIA TAI TIANQING PHARMACEUTICAL GROUP CO., LTD., priority 2021, published 2025).
Read-outs that look alike come from different tables or passages of the source.

Key:
[1] = system: BAF3-EGFR (L858R/T790M/C797S) cells; assay: Inhibition of proliferation of BAF3-EGFR (L858R/T790M/C797S) cells, CCK-8; format: cell-based; conditions: 72 h, read-out: BAF3(EGFR T790M L858R C797S) cell inhibitory activity IC50
How it was run: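 BaF3 EGFR L858R/T790M/C797S cells seeded at 1.5×10^5 cells/mL in RPMI + 10% FBS, 37 °C, compound added after overnight, duplicates. Viability by CCK-8; % inhibition vs untreated and blank, IC50 by four-parameter fit.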

EGFR (WT) = EGFR (WT) (Homo sapiens (Human), UniProt P00533); assay: Inhibitory activity for EGFR (WT) kinase; format: biochemical; conditions: ATP 5 μM
Procedure: A 50 ng/μL EGFR (WT, Carna) stock solution was diluted with a kinase buffer (50 mM HEPES, 10 mM MgCl2, 2 mM DTT, 1 mM EGTA, 0.01% Tween 20), and 6 μL of 1.67× working solution at 0.005 ng/μL (final concentration: 0.003 ng/μL) was added to each well. Different compounds dissolved in DMSO were added to the wells using a nanoliter pipettor, resulting in the final concentrations of the compounds of 100 nM to 0.0244 nM (4-fold gradient for 7 concentrations in total), and blank control wells (without enzyme) and negative control wells (with enzyme, plus vehicle DMSO) were set, 2 replicate wells for each concentration. After enzyme was reacted with the compound or vehicle for 30 min, 5×ATP at 25 μM (final concentration: 5 μM, Sigma) prepared with a kinase buffer was mixed with 5× substrate at 0.5 μM (final concentration: 0.1 μM, ULight-poly GT, PerkinElmer) at a ratio of 1:1 (v:v), and the mixture was added to each well at 4 μL/well. After being sealed with a film, the plate was incubated at room temperature for 2 h, and then 5 μL of 4×EDTA at 40 mM (final concentration: 10 mM) was added to each well. After the plate was incubated for 5 min at room temperature, 5 μL of 4× detection reagent at 8 nM (final concentration: 2 nM, Eu-anti-phospho-tyrosine antibody, PerkinElmer) was added to each well. After being incubated at room temperature for 1 h, the plate was read using a PerkinElmer Envision multi-mode microplate reader (excitation: 320 nm, emission: 665 nm), and IC50 was calculated by four-parameter fitting.

EGFR (L858R/T790M/C797S) = EGFR (L858R/T790M/C797S) (Homo sapiens (Human), UniProt P00533, C797S/L858R/T790M); assay: Inhibitory activity for EGFR (L858R/T790M/C797S) kinase; format: biochemical; conditions: ATP 5 μM
Procedure: (§1) A 50 ng/μL EGFR (L858R/T790M/C797S, BPS) stock solution was diluted with a kinase buffer (50 mM HEPES, 10 mM MgCl2, 2 mM DTT, 1 mM EGTA, 0.01% Tween 20), and 6 μL of 1.67× working solution at 0.00167 ng/μL (final concentration: 0.001 ng/μL) was added to each well. Different compounds dissolved in DMSO were added to wells using a nanoliter pipettor, resulting in the final concentrations of the compounds of 10 nM to 0.0024 nM (4-fold gradient, 7 concentrations in total), and blank control wells (without enzyme) and negative control wells (with enzyme, plus vehicle DMSO) were set, 2 replicate wells for each concentration. After enzyme was reacted with the compound or vehicle for 30 min, 5×ATP at 25 μM (final concentration: 5 μM, Sigma) prepared with a kinase buffer was mixed with 5× substrate at 0.5 μM (final concentration: 0.1 μM, ULight-poly GT, PerkinElmer) at a ratio of 1:1 (v:v), and the mixture was added to each well at 4 μL/well. After being sealed with a film, the plate was incubated at room temperature for 2 h, and then 5 μL of 4×EDTA at 40 mM (final concentration: 10 mM) was added to each well. After the plate was incubated for 5 min at room temperature, 5 μL of 4× detection reagent at 8 nM (final concentration: 2 nM, Eu-anti-phospho-tyrosine antibody, PerkinElmer) was added to each well. After being incubated at room temperature for 1 h, the plate was read using a PerkinElmer Envision multi-mode microplate reader (excitation: 320 nm, emission: 665 nm), and IC50 was calculated by four-parameter fitting.

EGFR (L858R/T790M) = EGFR (L858R/T790M) (Homo sapiens (Human), UniProt P00533, L858R/T790M); assay: Inhibitory activity for EGFR (L858R/T790M) kinase; format: biochemical; conditions: ATP 5 μM
Procedure: as §1, with “(L858R/T790M, Carna)” for “(L858R/T790M/C797S, BPS)”, “0.004175” for “0.00167”, “0.0025” for “0.001”

Sequence of EGFR (L858R/T790M) (P00533 25-1210 T790M/L858R): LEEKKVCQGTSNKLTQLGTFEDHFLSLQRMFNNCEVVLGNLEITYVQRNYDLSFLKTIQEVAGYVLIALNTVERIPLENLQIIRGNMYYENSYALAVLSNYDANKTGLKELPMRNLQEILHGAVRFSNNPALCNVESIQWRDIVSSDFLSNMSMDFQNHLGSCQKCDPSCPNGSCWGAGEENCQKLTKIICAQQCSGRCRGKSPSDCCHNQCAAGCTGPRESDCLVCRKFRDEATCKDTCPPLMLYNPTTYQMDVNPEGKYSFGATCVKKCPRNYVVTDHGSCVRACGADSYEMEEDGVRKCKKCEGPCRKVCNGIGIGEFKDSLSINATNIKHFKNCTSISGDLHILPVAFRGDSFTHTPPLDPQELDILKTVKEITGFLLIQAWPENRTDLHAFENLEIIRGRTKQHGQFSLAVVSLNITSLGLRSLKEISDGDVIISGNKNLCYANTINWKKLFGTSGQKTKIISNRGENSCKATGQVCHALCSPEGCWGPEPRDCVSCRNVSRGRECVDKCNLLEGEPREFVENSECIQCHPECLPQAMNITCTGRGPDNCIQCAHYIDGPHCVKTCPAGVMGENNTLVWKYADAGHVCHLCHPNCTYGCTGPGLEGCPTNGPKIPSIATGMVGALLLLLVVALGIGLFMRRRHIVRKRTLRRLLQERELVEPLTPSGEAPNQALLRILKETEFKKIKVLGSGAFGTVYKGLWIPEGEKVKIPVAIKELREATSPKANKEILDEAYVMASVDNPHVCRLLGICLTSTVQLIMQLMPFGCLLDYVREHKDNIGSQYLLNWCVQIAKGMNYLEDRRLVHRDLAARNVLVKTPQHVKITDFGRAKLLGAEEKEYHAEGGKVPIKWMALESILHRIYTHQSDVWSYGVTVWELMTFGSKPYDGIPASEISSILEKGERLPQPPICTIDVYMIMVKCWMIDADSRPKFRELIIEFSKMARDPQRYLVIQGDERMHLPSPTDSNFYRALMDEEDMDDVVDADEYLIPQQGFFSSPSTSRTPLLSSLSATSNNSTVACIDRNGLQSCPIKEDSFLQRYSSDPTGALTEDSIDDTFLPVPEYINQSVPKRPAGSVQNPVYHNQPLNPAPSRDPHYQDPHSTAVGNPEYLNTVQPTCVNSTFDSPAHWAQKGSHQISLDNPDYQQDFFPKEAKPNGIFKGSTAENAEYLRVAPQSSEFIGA
Sequence of EGFR (WT) (P00533 25-1210): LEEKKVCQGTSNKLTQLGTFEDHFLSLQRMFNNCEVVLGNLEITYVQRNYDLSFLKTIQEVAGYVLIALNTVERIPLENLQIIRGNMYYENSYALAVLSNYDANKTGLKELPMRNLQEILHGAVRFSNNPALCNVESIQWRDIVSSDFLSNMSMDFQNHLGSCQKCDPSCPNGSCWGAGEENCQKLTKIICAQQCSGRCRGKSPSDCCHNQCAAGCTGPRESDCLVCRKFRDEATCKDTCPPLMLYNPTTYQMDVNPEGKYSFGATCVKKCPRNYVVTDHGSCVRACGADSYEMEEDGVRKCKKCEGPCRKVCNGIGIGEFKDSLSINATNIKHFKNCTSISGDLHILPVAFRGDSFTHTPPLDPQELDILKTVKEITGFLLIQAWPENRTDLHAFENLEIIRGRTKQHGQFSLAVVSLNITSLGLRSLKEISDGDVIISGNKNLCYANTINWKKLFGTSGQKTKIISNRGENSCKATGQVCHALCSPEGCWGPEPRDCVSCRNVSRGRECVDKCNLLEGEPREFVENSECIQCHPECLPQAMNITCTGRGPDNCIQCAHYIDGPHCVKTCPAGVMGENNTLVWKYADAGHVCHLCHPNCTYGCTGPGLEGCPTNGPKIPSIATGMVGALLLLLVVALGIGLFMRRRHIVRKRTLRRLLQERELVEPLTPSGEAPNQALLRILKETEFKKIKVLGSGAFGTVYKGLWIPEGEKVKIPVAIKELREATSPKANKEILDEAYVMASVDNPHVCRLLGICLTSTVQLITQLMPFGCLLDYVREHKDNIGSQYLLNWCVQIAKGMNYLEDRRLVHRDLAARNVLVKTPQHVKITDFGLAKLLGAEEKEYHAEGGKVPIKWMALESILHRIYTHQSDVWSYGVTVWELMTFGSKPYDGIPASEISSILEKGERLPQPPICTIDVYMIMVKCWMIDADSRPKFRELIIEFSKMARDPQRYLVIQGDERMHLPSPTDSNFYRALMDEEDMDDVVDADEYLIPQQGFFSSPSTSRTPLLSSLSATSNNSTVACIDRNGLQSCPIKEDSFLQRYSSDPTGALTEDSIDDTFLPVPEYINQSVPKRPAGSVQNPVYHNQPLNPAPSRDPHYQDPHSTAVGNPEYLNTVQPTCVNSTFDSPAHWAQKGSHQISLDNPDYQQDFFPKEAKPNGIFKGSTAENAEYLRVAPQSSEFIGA
Sequence of EGFR (L858R/T790M/C797S) (P00533 25-1210 T790M/C797S/L858R): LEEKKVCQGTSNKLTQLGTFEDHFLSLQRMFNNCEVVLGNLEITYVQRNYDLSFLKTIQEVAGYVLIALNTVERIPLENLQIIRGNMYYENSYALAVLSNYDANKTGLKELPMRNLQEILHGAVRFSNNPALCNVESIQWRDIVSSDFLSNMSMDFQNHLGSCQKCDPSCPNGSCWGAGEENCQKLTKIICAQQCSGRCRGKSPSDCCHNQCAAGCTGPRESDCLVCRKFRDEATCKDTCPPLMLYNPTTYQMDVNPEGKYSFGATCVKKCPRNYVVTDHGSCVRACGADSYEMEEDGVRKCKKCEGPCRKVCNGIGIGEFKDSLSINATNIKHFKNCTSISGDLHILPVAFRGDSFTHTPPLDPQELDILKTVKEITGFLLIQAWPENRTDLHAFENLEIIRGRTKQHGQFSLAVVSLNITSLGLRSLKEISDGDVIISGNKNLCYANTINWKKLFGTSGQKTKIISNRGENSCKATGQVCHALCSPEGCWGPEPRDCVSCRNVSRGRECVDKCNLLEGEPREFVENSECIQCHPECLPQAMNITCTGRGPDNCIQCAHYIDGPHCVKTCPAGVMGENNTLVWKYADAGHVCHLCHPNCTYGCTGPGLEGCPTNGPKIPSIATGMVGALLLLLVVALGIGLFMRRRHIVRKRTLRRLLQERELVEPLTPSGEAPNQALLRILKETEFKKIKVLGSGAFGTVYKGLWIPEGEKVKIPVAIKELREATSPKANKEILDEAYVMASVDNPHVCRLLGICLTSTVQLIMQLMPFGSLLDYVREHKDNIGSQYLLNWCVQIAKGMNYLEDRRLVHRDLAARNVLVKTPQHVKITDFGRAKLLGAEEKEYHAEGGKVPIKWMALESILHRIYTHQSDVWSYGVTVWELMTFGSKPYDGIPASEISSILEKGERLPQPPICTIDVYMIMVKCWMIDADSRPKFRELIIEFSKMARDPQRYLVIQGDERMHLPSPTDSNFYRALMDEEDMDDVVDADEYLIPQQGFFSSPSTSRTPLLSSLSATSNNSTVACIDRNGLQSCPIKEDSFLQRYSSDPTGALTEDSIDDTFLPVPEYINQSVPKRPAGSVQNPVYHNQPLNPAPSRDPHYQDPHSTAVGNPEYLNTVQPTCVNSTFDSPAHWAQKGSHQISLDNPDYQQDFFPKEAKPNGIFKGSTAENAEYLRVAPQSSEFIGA

## Cc1cc2cc(n1)-c1cnn(C)c1OCCC[C@@H](C1CC1)CN1/C(=N/C2=O)Nc2cc(N[C@H]3CC[C@@H](N(C)C)CC3)ccc21 [Example 26]
[1]
  IC50: < 5 nM
EGFR (WT)
  IC50: 0.24 nM
EGFR (L858R/T790M/C797S)
  IC50: 0.017 nM
EGFR (L858R/T790M)
  IC50: 0.025 nM

## Cc1cc2cc(n1)-c1cnn(C)c1OCCC[C@@H](C1CC1)CN1/C(=N/C2=O)Nc2cc(N[C@H]3CC[C@H](N(C)C)CC3)ccc21 [Example 25]
[1]
  IC50: < 5 nM
EGFR (WT)
  IC50: 0.049 nM
EGFR (L858R/T790M/C797S)
  IC50: 0.014 nM
EGFR (L858R/T790M)
  IC50: 0.021 nM

## Cc1cc2cc(n1)-c1cnn(C)c1OC[C@H](C1CC1)CCCn1c(nc3cc(NC4COC4)ccc31)NC2=O [Example 60]
EGFR (WT)
  IC50: 8 nM
EGFR (L858R/T790M/C797S)
  IC50: 0.081 nM
EGFR (L858R/T790M)
  IC50: 0.09 nM

## Cc1cc2cc(n1)-c1cnn(C)c1OCCC[C@@H](C1CC1)CN1/C(=N/C2=O)Nc2cc(NC3(C(F)(F)F)COC3)ccc21 [Example 88]
[1]; Ba/F3 EGFR
  IC50: < 5 nM
EGFR (WT)
  IC50: 6 nM
EGFR (L858R/T790M/C797S)
  IC50: 0.177 nM
EGFR (L858R/T790M)
  IC50: 0.01 nM

## Cc1cc2cc(n1)-c1cnn(C)c1OCCC[C@@H](C1CC1)CN1/C(=N/C2=O)Nc2ccc(C=CCCN(C)C)cc21 [Example 24]
[1]
  IC50: < 5 nM
EGFR (WT)
  IC50: 1.1 nM
EGFR (L858R/T790M/C797S)
  IC50: 0.02 nM
EGFR (L858R/T790M)
  IC50: 0.031 nM

## Cc1cc2cc(n1)-c1cnn(C)c1OCCC[C@@H](C1CC1)CN1/C(=N/C2=O)Nc2cc(N[C@H](C)C3COC3)ccc21 [Example 39]
[1]
  IC50: < 5 nM
EGFR (WT)
  IC50: 0.61 nM
EGFR (L858R/T790M/C797S)
  IC50: 0.027 nM
EGFR (L858R/T790M)
  IC50: 0.04 nM

## C[C@H](Nc1ccc2c(c1)N/C1=N\C(=O)c3cc(F)nc(c3)-c3cnn(C)c3OCCC[C@@H](C3CC3)CN12)C(F)(F)F [Example 9]
EGFR (WT)
  IC50: 0.56 nM
EGFR (L858R/T790M/C797S)
  IC50: 0.5 nM
EGFR (L858R/T790M)
  IC50: 0.45 nM

## Cc1cc2cc(n1)-c1cnn(C)c1OCCC[C@@H](C1CC1)CN1/C(=N/C2=O)Nc2cc(NC3(C)COC3)ccc21 [Example 29]
[1]; Ba/F3 EGFR
  IC50: < 5 nM

## Cc1cc2cc(n1)-c1cnn(C)c1OC[C@H](C1CC1)CCCn1c(nc3ccc(NC4COC4)cc31)NC2=O [Example 59]
EGFR (WT)
  IC50: 5.9 nM
EGFR (L858R/T790M/C797S)
  IC50: 0.085 nM
EGFR (L858R/T790M)
  IC50: 0.081 nM

## Cc1cc2cc(n1)-c1cnn(C)c1OCCC[C@@H](C1CC1)CN1/C(=N/C2=O)Nc2ccc(NCCN(C)C)cc21 [Example 28]
[1]; Ba/F3 EGFR
  IC50: < 5 nM
